Experimental data reported in publication PMC11239005, “Preclinical studies of RA475, a guanidine-substituted spirocyclic candidate RPN13/ADRM1 inhibitor for treatment of ovarian cancer” (PLOS ONE, 2024).

Key:
4UbFL in HCC1806 cells = experiment: 4UbFL reporter assay, HCC1806; format: cell-based; conditions: HCC1806 stably expressing 4UbFL, 4 h
Protocol: Sub-confluent cultures of cells were transfected with 4UbFL plasmid using TransIT 2020 reagent (Mirus Bio). Cells were seeded at 10,000 cells/well in 96-well plates 48 h post transfection, and incubated with compounds or vehicle (DMSO) at the doses and for the times indicated. Luciferase activity in cell lysate was determined with a luciferase assay kit (Promega) according to the manufacturer’s instructions. Bioluminescence was measured using a Glomax Multidetection system (Promega).
Fig 3 Impact of RA475 on proteasome function. […] Actin was used as loading control. […] After a 4 h incubation, the cells were lysed and the luciferase activity in each cell lysate was determined with a luciferase assay kit (Promega) according to the manufacturer’s instructions. Bioluminescence was measured by using a luminometer (Glomax Multidetection system, Promega) E) A patch was shaved of hair on one leg of CD-1 mice, and 10 μg 4UbFL plasmid in 20 μL of PBS was injected into the quadriceps femoralis muscle followed immediately by injection of the 2 Needle Array to 5 mm depth encompassing the injection site and square wave electroporation (ElectroSquarePorator 833, BTX-2 Needle array 5mm gap, Harvard apparatus) delivered as eight pulses at 106V for 20 ms with 200 ms intervals. […] Equally sized areas were analyzed using Living Image 2.20 software. […]

[1] = Stability in human liver microsomes; format: in vitro ADME; conditions: with or without NADPH, over 1 h
Protocol: Human and mouse liver microsomes and NADPH regenerating system solutions were purchased from Corning Life Sciences (Tewsbury, MA). Human and mouse K2EDTA-treated plasma was purchased from BioIVT (Westbury, NY). Metabolic studies in liver microsomes (0.125 mg/mL) were conducted in 1x PBS (pH 7.4), NADPH-generating system, and 10 μM RA475 in a final volume of 250 μL. An incubation mixture with or without NADPH-generating system, as well as a neat solution prepared without microsomes and NADPH-generating system was used. RA475 was added at the same concentration level into human and mouse EDTA plasma. All reactions were initiated with the addition of RA475. Incubations were performed in glass tubes maintained at 37°C in a shaker bath. At 0, 30, and 60 min, 10 μL samples were withdrawn from the reaction mixture, and 0.5 mL of acetonitrile containing internal standard was added to each. Samples were vortex-mixed and subjected to centrifugation for 5 min at 1430 x g. A 10 μL aliquot of the supernatant was injected onto the LC-MS/MS instrument for qualitative analysis using a temperature-controlled autosampling device operating at 5°C (See Pharmacokinetic section).

In the case of `Cl.Cl.N#Cc1ccc(/C=C2/C(=O)/C(=C/c3ccc(C#N)cc3)C23CCN(C(=N)N)CC3)cc1` [RA475, 1,3-bis((E)-4-cyanobenzylidene)-2-oxo-7-azaspiro[3.5]nonane-7-carboximidamide dihydrochloride], the 4UbFL bioluminescence signal (4UbFL in HCC1806 cells) is reported as “dose dependent increases in bioluminescence signal” and the “degradation in liver microsomes” value [1] is reported as under 10%.
